Data: patent US20230010258A1, “COMPOSITION FOR PREVENTING OR INHIBITING AXONAL DEGENERATION” (CHECKMATE THERAPEUTICS INC., priority 2019, published 2023)
Structures can show the parent of a compound that is named as a salt.

How the values were obtained:
[1] = system: phosphorylation of JNK protein, a representative sub-regulatory marker of SARM1; conditions: MKN1 cells, Western blot, Hsp90 as housekeeping protein
Description: Accordingly, in order to evaluate the axonal degeneration inhibitory effects of the compounds according to the present invention, the abilities of these compounds to inhibit SARM1 enzyme were analyzed. Specifically, whether phosphorylation of JNK protein, a representative sub-regulatory marker of SARM1, decreased, was evaluated by Western blot assay. A method for preparing the protein used in the Western blot assay is as follows. […] The entire cell lysate was fractionated using a centrifuge, and then only the solution containing the protein was extracted. The extracted protein was quantified by the Bradford method. The protein of the same concentration obtained through quantification was separated by SDS-polyacrylamide gel electrophoresis, and then transferred to a PVDF membrane. […] For visualization, an enhanced chemiluminescence system was used. Western blot assay was performed using JNK protein, a representative marker whose phosphorylation is regulated by SARM1, and the housekeeping protein Hsp90 was used for quantitative comparison of expression.

[2] = system: retinal ganglion cell axons; assay: Tadpole optic nerve axotomy model, axon survival score (Experimental Example 4); assay type: in vivo, Xenopus tropicalis; conditions: axotomy at stage 43, evaluated 48 hours after axotomy, control DMSO
Description: In order to verify the axon protective effect of the compound according to the present invention in the tadpole optic nerve axotomy model, an experiment was conducted in the same manner as in Experimental Example 3. Specifically, GFP-expressing DNA was delivered into one retina of a Xenopus tropicalis tadpole at stage 27 (before retinal development) by electroporation. At stage 43 (the time when the connection between the retina and the visual center of the brain is finished), axons of the epectroporated retina were axotomized, and the tissue was fixed at 24-hour intervals, followed by extraction of the brain. Next, the ventral midline of the brain was excised and unfolded, and then the GFP signal in the contra-lateral brain hemisphere was imaged with a confocal microscope (LSM700, Carl Zeiss, 20×, z-step 3 μm). Thereby, it was possible to observe retinal ganglion cell axons located along the optic tract extending from the optic chiasm to the optic tectum. […] Axonal degeneration could be quantified because the continuous GFP signal disappeared along the optic tract over time after axotomy. […] The degree of inhibition of axonal degeneration by the drug was evaluated 48 hours after axotomy. […] The percentage of healthy axons in the drug group relative to the control group taken as 100% was calculated and used as the axon survival score (0 to 100%).

axonal degeneration = conditions: cited from earlier work
optic nerve axons = assay: Tadpole optic nerve axotomy model, delay in Wallerian degeneration (Experimental Example 3); assay type: in vivo, Xenopus tropicalis; conditions: optic nerve axotomized at stage 41, 48 hours after treatment
Description: In order to verify the axon protective effect of the compound according to the present invention in the tadpole optic nerve axotomy model, an experiment was conducted according to the design shown in FIG. 13. Specifically, an in vitro fertilized Xenopus tropicalis (African frog) embryo (Nasco, Fort Atkinson, Wis. 53538, USA) is cultured to stage 27, and then a plasmid DNA expressing Enhanced Green Fluorescence Protein (EGFP) is delivered into the retinal progenitor cells of one eye by an electroporation technique. After culturing to stage 41, the axons of the retinal ganglion cells expressing the green fluorescent protein reach the optic tectum of the contralateral brain hemisphere, and this axon bundle is referred to as the optic nerve. When the optic nerve is axotomized at stage 41, Wallerian degeneration occurs in which axons distal from the cell body degenerate by fragmentation over about 72 hours. […] Wallerian degeneration of the Xenopus optic nerve occur in a stereotypical pattern at 24 hours, 48 hours and 72 hours after axotomy, and the degree of delay in Wallerian degeneration was quantified as percentage by comparing the degree of Wallerian degeneration in the drug-treated group with this pattern.

SMILES: O=C(NCc1ccc(-c2nc3ccc(Cl)cc3o2)cc1)c1cccnc1 [A4266, N-(4-(6-chlorobenzo[d]oxazol-2-yl)benzyl)nicotinamide]
- JNK phosphorylation [1]: had the effect of inhibiting JNK phosphorylation

SMILES: CS(=O)(=O)c1ccc2oc(-c3ccc(CNC(=O)c4cccnc4)cc3)nc2c1 [A4510H, N-(4-(5-(methylsulfonyl)benzo[d]oxazol-2-yl)benzyl)nicotinamide hydrochloride]
- axon protective effect (axon survival score) [2]: exhibited an excellent axon protective effect

SMILES: O=C(/C=C/c1cccnc1)NCCCCC1CCN(C(=O)c2ccccc2)CC1 [FK866]
- axonal degeneration (axonal degeneration): effect of partially inhibiting axonal degeneration

SMILES: Nc1ccc(/C=C/C(=O)NCc2cc3cc(-c4ccc(C(=O)N5CCC(F)(F)CC5)cc4)cc(-c4ccc(F)cc4)c3o2)cn1 [KPT9274]
- axon protective effect (degree of delay in Wallerian degeneration) (optic nerve axons): did not exhibit a significant axon protective effect

SMILES: CC(C)(O)CS(=O)(=O)Nc1ccc2c(c1)CCN(C(=O)COc1cccnc1)C2 [LSN 3154567]
- axon protective effect (degree of delay in Wallerian degeneration) (optic nerve axons): did not exhibit a significant axon protective effect
